{"source": "patent US9382204B2", "about": "“Inhibitors targeting the DNA-binding domain of human STAT3 for treatment of metastatic cancers” (Indiana University Research and Technology Corporation, priority 2013, dated 2016)", "key": {"[1]": {"test_system": "STAT3", "assay": "STAT3-dependent luciferase reporter assay in transiently transfected H1299 cells", "type": "cell-based, human", "conditions": "newly synthesized compound", "from_the_text": "FIG. 1. Schematic diagram and identification of inS3-54 by virtual screening. (A) DNA-STAT3 complex structure (PDB code: 1BG1). […] (B) Luciferase activity assay of MDA-MB-231 cells stably transfected with STAT3-dependent luciferase reporter. (C) Structure of inS3-54. (D) Luciferase activity assay of H1299 cells transiently transfected with STAT3-dependent luciferase reporter. (E) Simulated average complex structure of inS3-54 in the DBD of STAT3. (F & G) Molecular surface of STAT3 (F) and STAT1 (G) complexed with inS3-54 from MD simulation with orientation shown in gold for STAT3 and pink for STAT1. Molecular surface is colored with gray for carbon, blue for nitrogen, red for oxygen and yellow for sulfur. (**p<0.01).\nTo confirm the activity of the compound using re-supplied material, to eliminate the potential issues associated with the use of a single stable clone harboring the luciferase reporter gene, and to test if inS3-54 is cell line specific, we tested newly synthesized inS3-54 using H1299 cells transiently transfected with the STAT3-driven luciferase reporter plasmid. […] Thus, the activity of inS3-54 is not derived from potential contamination in the original supply and it is not dependent on cell line specific or transfection method used."}, "[2]": {"test_system": "A549 and MDA-MB-231 cells", "assay": "Luminescence-based glutathione alkylation assay (GSH-Glo)", "type": "cell-based, human", "conditions": "20 μM inS3-54 48 hours, 15 mM iodoacetamide 30 minutes", "from_the_text": "FIG. 5. Effect of inS3-54 glutathione level. […] (***p<0.001).\nTo further eliminate the possibility that inS3-54 has alkylating activity, we performed luminescence-based glutathione alkylation assay."}, "[3]": {"test_system": "STAT3", "assay": "STAT3 dimerization (STAT3c non-reducing PAGE, HA/FLAG co-immunoprecipitation) in H1299 cells", "type": "cell-based, human", "conditions": "20 μM", "from_the_text": "To eliminate the possibility that inS3-54 works by off-targeting to the SH2 domain, we tested if inS3-54 inhibits STAT3 dimerization using FLAG-STAT3c, which forms spontaneous homo-dimers via formation of intermolecular disulfide bond.\nHowever, inS3-54 had no effect on production of dimeric STAT3c separated using non-reducing SDS-PAGE or non-denaturing PAGE (FIG. 6B) while S3I-201, a STAT3 inhibitor that binds to the SH2 domain, inhibited STAT3c dimerization (FIG. 6B). To confirm this observation, we performed a co-immunoprecipitation analysis of HA and FLAG-tagged STAT3."}, "[4]": {"assay": "Cytotoxicity sulphorhodamine (SRB) assay, non-cancerous cells", "conditions": "human, IMR90 lung fibroblast and MCF10A1 mammary epithelial cells", "description": "FIG. 7. […] (A) Level of STAT3 expression and activation. […] Actin was used as a loading control. (B-C) Cytotoxicity assay. […] IC50 of inS3-54 for each cell line was derived using PrismPad program. (D) Apoptosis assay.\nCytotoxicity of inS3-54 was determined using sulphorhodamine colorimetric assay as described previously (41). Photometric enzyme immunoassay using Cell Death Detection ELISA Plus kit (Roche Diagnostics, Indianapolis, Ind.) was performed for quantitative in-vitro determination of cytoplasmic histone-associated DNA fragments and apoptosis as we previously described.\nSurvival, apoptosis, migration, and invasion assays were performed as previously described. Briefly, effect of STAT3 inhibitors on cell survival were analyzed using sulforhodamine B (SRB) assay. Apoptosis induced by STAT3 inhibitors cells were quantified using Cell Death Detection ELISA^PLUS Kit (Roche, Mannheim, Germany) by enzyme-linked immunosorbent assay (ELISA) according to manufacturer's instructions. Wound filling assay was performed by culturing 1×10^5 cells/well in 6-well plates, followed by generating a wound using a pipet tip and continuous culture with photographic recording at different times."}, "[5]": {"test_system": "hematopoietic progenitor cells from STAT3−/− mice", "assay": "Hematopoietic progenitor cell colony formation assay, STAT3−/− mice", "type": "cell-based, mouse", "conditions": "20 μM", "description": "Hematopoietic progenitor cell colony formation assay was performed as previously described. Briefly, 5×10^4 STAT3^+/+ and STAT3^−/− mouse (C57BL/6) bone marrow cells were stimulated in vitro with 1 U/ml recombinant human erythropoietin, 50 ng/ml recombinant mouse stem cell factor and 5% vol/vol pokeweed mitogen mouse spleen cell conditioned medium, and 0.1 mM hemin in the presence of either IMDM medium, IMDM medium plus inS3-54 analogues or DMSO vehicle control. Colonies were scored seven days after incubation at 37° C. with 5% CO2 and lowered (5%) 02."}, "[6]": {"test_system": "STAT3", "assay": "ChIP assay of STAT3 bound to cyclin D1 promoter", "type": "cell-based, human", "description": "ChIP was performed as previously described. Briefly, H1299 cells were treated with 1% formaldehyde for 10 min and lysates of the cells were sonicated to shear DNA to lengths between 200 and 1000 bases, which were then subjected to ChIP using Chromatin Immunoprecipitation Assay Kit (EMD Millipore, Billerica, Mass.) and normal IgG or STAT3 specific antibody (Santa Cruz) according to manufacturer's instructions. The primers for PCR of cyclin D1 promoter are 5′-[…]-3′ SEQ ID NO: 23 (forward) and 5′-[…]-3′ SED ID NO: 24 (reverse)."}}}
{"smiles": "O=C(O)c1ccc(N2C(=O)/C(=C/c3ccc([N+](=O)[O-])cc3)C=C2c2ccccc2)cc1", "note": "[inS3-54, 4-[(3E)-3-[(4-nitrophenyl)-methylidene]-2-oxo-5-phenylpyrrol-1-yl]benzoic acid]", "values": [{"measurement": "STAT3-dependent luciferase reporter expression", "setting": "[1]", "result": "significantly inhibits"}, {"measurement": "glutathione level", "setting": "[2]", "result": "did not significantly reduce"}, {"measurement": "production of dimeric STAT3c", "setting": "[3]; 24 hrs, non-reducing SDS-PAGE or non-denaturing PAGE", "result": "had no effect"}, {"measurement": "co-immunoprecipitation between HA- and FLAG-tagged STAT3", "setting": "[3]; H1299 cells", "result": "had no effect"}, {"measurement": "IC50 at 72 h", "setting": "[4]", "result": "10 to 12", "unit": "µM"}, {"measurement": "colony formation of hematopoietic progenitor cells from STAT3−/− mice", "setting": "[5]", "result": "further reduced"}]}
{"smiles": "O=C1C(=Cc2ccc(Cl)cc2)C=C(c2ccccc2)N1c1ccc(O)cc1", "note": "[Compound A18]", "values": [{"measurement": "STAT3 binding to the promoter of cyclin D1 gene (ChIP)", "setting": "[6]", "result": "eliminated"}]}
